The structures appear in SMILES notation.

In one assay the target is KRas WT (Homo sapiens, UniProt P01116). Description: KRas binding assay (TR-FRET displacement), KRas WT. The settings on record: TR-FRET displacement. (In TR-FRET formats the signal depends on donor and acceptor labels being close together.)
In a further assay the target is KRas G12A (Homo sapiens, UniProt P01116, G12A). Format: binding. The settings on record: TR-FRET displacement, read-out: Binding to KRas (IC50 nM) G12A.
For a further assay, the target named is KRas G12C (Homo sapiens, UniProt P01116, G12C). It is filed as binding. The settings on record: TR-FRET displacement, read-out: Binding to KRas (IC50 nM) G12C.
Another assay addresses KRas G12S (Homo sapiens, UniProt P01116, G12S). Format: binding. The settings on record: TR-FRET displacement, read-out: Binding to KRas (IC50 nM) G12S.
Another assay concerns the target KRas G13D (Homo sapiens, UniProt P01116, G13D). Format: binding. The settings on record: TR-FRET displacement, read-out: Binding to KRas (IC50 nM) G13D.
For another assay, the target named is KRas Q61H (Homo sapiens, UniProt P01116, Q61H). As to the kind of experiment: KRas binding assay (TR-FRET displacement), KRas Q61H. The settings on record: TR-FRET displacement.
Another assay deals with KRas G12D (Homo sapiens, UniProt P01116, G12D). Description: biochemical. The settings on record: Binding to KRas (IC50 nM) G12D, TR-FRET displacement, KRas G12D.
Another assay concerns the target KRas G12V (Homo sapiens, UniProt P01116, G12V). As to the kind of experiment: biochemical. The settings on record: Binding to KRas (IC50 nM) G12V, TR-FRET displacement, KRas G12V.

Sequence of KRas G12V (P01116 1-169 isoform P01116-2 G12V): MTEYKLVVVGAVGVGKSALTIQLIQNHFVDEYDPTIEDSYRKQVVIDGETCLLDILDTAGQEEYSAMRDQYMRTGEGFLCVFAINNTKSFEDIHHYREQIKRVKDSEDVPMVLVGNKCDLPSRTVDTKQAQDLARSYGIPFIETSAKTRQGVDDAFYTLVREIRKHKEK
Sequence of KRas WT (P01116 1-169 isoform P01116-2): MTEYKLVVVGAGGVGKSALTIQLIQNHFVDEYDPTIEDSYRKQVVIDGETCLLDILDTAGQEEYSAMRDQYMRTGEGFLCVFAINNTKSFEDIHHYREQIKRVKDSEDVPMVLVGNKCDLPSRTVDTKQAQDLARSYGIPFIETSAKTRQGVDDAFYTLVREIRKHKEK
Sequence of KRas Q61H (P01116 1-169 isoform P01116-2 Q61H): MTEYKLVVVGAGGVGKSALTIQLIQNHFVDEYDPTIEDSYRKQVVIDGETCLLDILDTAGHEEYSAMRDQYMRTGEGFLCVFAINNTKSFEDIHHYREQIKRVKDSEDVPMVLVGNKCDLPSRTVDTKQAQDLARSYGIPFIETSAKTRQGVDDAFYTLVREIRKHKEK
Sequence of KRas G12S (P01116 1-169 isoform P01116-2 G12S): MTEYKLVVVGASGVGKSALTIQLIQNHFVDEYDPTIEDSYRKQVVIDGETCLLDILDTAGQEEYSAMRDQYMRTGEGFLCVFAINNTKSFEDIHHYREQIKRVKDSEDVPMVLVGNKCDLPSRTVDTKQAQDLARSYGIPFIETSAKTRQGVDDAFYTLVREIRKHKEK
Sequence of KRas G13D (P01116 1-169 isoform P01116-2 G13D): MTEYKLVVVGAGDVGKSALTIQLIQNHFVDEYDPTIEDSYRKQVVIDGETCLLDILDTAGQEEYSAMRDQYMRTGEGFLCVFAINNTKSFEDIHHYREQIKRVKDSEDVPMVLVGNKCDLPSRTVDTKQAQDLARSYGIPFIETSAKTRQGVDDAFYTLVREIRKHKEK
Sequence of KRas G12A (P01116 1-169 isoform P01116-2 G12A): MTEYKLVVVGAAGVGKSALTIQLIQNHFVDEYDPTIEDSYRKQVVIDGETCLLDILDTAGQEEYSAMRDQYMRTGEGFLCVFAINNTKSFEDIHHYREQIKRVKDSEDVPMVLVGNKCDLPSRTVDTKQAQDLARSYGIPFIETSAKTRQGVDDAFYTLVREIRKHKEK
Sequence of KRas G12C (P01116 1-169 isoform P01116-2 G12C): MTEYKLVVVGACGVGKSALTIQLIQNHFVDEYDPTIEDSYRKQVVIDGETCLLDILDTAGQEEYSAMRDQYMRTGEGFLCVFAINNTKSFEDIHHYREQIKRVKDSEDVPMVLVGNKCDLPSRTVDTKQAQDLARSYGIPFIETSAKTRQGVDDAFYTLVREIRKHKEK
Sequence of KRas G12D (P01116 1-169 isoform P01116-2 G12D): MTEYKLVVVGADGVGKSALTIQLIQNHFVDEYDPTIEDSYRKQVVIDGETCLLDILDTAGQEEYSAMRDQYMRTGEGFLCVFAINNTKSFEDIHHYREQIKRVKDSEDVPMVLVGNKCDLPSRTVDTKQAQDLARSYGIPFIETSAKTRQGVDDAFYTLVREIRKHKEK

For `CCc1cccc2cccc(N3CCc4c(nc(OCC5(CN(C)C)CC5)nc4N4CC(CO)OC(C(F)(F)F)C4)C3)c12` (centres unmarked) [Example 540, (4-(2-((1-((dimethylamino)methyl)cyclopropyl)methoxy)-7-(8-ethylnaphthalen-1-yl)-5,6,7,8-tetrahydropyrido[3,4-d]pyrimidin-4-yl)-6-(trifluoromethyl)morpholin-2-yl)methanol], the IC50 at KRas WT was found to be 5810 nM; at KRas G12A, 3280 nM; at KRas G12C, 1840 nM; at KRas G12S, 3750 nM; on KRas G13D, 8850 nM; on KRas Q61H it was 7730 nM. The IC50 was 9350 nM on KRas G12D and 1720 nM at KRas G12V.
`CCc1cccc2cccc(N3CCc4c(nc(OCC5(CN(C)C)CC5)nc4NCc4ccnn4C4CC4(F)F)C3)c12` (centres unmarked) [Example 541, N-((1-(2,2-difluorocyclopropyl)-1H-pyrazol-5-yl)methyl)-2-((1-((dimethylamino)methyl)cyclopropyl)methoxy)-7-(8-ethylnaphthalen-1-yl)-5,6,7,8-tetrahydropyrido[3,4-d]pyrimidin-4-amine]: the half-maximal inhibitory concentration (IC50) at KRas WT is 256 nM; on KRas G12A it was 259 nM; on KRas G12C it was 165 nM; at KRas G12S, 169 nM; at KRas G13D, 200 nM; on KRas Q61H, 298 nM. Further, the IC50 at KRas G12D was determined as 10000 nM; at KRas G12V, 5980 nM.
As to `CCc1cccc2cccc(N3CCc4c(nc(OCC5(CN(C)C)CC5)nc4NC4CCCc5[nH]ncc54)C3)c12` (centres unmarked) [Example 542, 2-((1-((dimethylamino)methyl)cyclopropyl)methoxy)-7-(8-ethylnaphthalen-1-yl)-N-(4,5,6,7-tetrahydro-1H-indazol-4-yl)-5,6,7,8-tetrahydropyrido[3,4-d]pyrimidin-4-amine], the half-maximal inhibitory concentration (IC50) at KRas WT amounted to 10400 nM; on KRas G12A, 5740 nM; on KRas G12C it was 2890 nM; on KRas G12S, 5830 nM; at KRas G13D it was 15800 nM; at KRas Q61H it was 18300 nM. The IC50 on KRas G12D worked out at 11600 nM; on KRas G12V, 5370 nM.
Take `CCc1cccc2cccc(N3CCc4c(nc(OCC5(CN(C)C)CC5)nc4N4CCC(F)C(OC)C4)C3)c12` (centres unmarked) [Example 543, 1-(1-(((7-(8-ethylnaphthalen-1-yl)-4-(4-fluoro-3-methoxypiperidin-1-yl)-5,6,7,8-tetrahydropyrido[3,4-d]pyrimidin-2-yl)oxy)methyl)cyclopropyl)-N,N-dimethylmethanamine]: the IC50 at KRas WT was determined as 1500 nM; at KRas G12A, 1200 nM; at KRas G12C it was 634 nM; on KRas G12S it was 750 nM; at KRas G13D, 2270 nM; on KRas Q61H it was 2400 nM. The values for the IC50 at KRas G12D and at KRas G12V were 12100 nM and 3940 nM, respectively.
With `CCc1cccc2cccc(N3CCc4c(nc(OCC5(CN(C)C)CC5)nc4N4CCOC(C(F)F)CC4)C3)c12` (centres unmarked) [Example 544, 1-(1-(((4-(7-(difluoromethyl)-1,4-oxazepan-4-yl)-7-(8-ethylnaphthalen-1-yl)-5,6,7,8-tetrahydropyrido[3,4-d]pyrimidin-2-yl)oxy)methyl)cyclopropyl)-N,N-dimethylmethanamine], the IC50 at KRas WT is 327 nM; at KRas G12A it was 291 nM; on KRas G12C, 180 nM; on KRas G12S, 204 nM; at KRas G13D, 112 nM; on KRas Q61H it was 121 nM. Besides, the IC50 was 21100 nM on KRas G12D and 14500 nM on KRas G12V.
Consider `CCc1cccc2cccc(N3CCc4c(nc(OCC5(CN(C)C)CC5)nc4N4CCCC(c5n[nH]cc5NC(C)=O)C4)C3)c12` (centres unmarked) [Example 545, N-(3-(1-(2-((1-((dimethylamino)methyl)cyclopropyl)methoxy)-7-(8-ethylnaphthalen-1-yl)-5,6,7,8-tetrahydropyrido[3,4-d]pyrimidin-4-yl)piperidin-3-yl)-1H-pyrazol-4-yl)acetamide], for which the half-inhibitory concentration (IC50) at KRas WT is 7230 nM; at KRas G12A it was 4750 nM; at KRas G12C it was 4780 nM; at KRas G12S, 5000 nM; at KRas G13D it was 8090 nM; at KRas Q61H, 5900 nM. Also, the concentration for half-maximal inhibition (IC50) worked out at 13100 nM at KRas G12D and 6080 nM on KRas G12V.
As for `CCc1cccc2cccc(N3CCc4c(nc(OCC5(CN(C)C)CC5)nc4N4CCOC(CNC(=O)NC)C4)C3)c12` (centres unmarked) [Example 546, 1-((4-(2-((1-((dimethylamino)methyl)cyclopropyl)methoxy)-7-(8-ethylnaphthalen-1-yl)-5,6,7,8-tetrahydropyrido[3,4-d]pyrimidin-4-yl)morpholin-2-yl)methyl)-3-methylurea], the half-inhibitory concentration (IC50) is 2640 nM on KRas WT; 3800 nM at KRas G12A; 2630 nM on KRas G12C; 3570 nM at KRas G12S; 4620 nM on KRas G13D; 3310 nM on KRas Q61H. The IC50 was found to be 13600 nM on KRas G12D and 4640 nM on KRas G12V.
In the case of `CCc1cccc2cccc(N3CCc4c(nc(OCC5(CN(C)C)CC5)nc4NCCC4CC(C)(C)NC4=O)C3)c12` (centres unmarked) [Example 547, 3-(2-((2-((1-((dimethylamino)methyl)cyclopropyl)methoxy)-7-(8-ethylnaphthalen-1-yl)-5,6,7,8-tetrahydropyrido[3,4-d]pyrimidin-4-yl)amino)ethyl)-5,5-dimethylpyrrolidin-2-one], the half-maximal inhibitory concentration (IC50) on KRas WT turned out to be 667 nM; on KRas G12A, 798 nM; at KRas G12C it was 622 nM; at KRas G12S it was 707 nM; at KRas G13D, 680 nM; on KRas Q61H it was 784 nM. Further, the IC50 at KRas G12D was determined as 15900 nM; on KRas G12V it was 2320 nM.
`CCc1cccc2cccc(N3CCc4c(nc(OCC5(CN(C)C)CC5)nc4N(C)Cc4nnc5n4CC(C(F)(F)F)CC5)C3)c12` (centres unmarked) [Example 548, 2-((1-((dimethylamino)methyl)cyclopropyl)methoxy)-7-(8-ethylnaphthalen-1-yl)-N-methyl-N-((6-(trifluoromethyl)-5,6,7,8-tetrahydro-[1,2,4]triazolo[4,3-a]pyridin-3-yl)methyl)-5,6,7,8-tetrahydropyrido[3,4-d]pyrimidin-4-amine]: the IC50 amounted to 10000 nM on KRas WT; 6790 nM at KRas G12A; 4120 nM on KRas G12C; 8210 nM on KRas G12S; 13900 nM on KRas G13D; 11100 nM on KRas Q61H. For the same compound, the values for the 50% inhibitory concentration (IC50) on KRas G12D and at KRas G12V were 16700 nM and 5890 nM, respectively.
For `CCc1cccc2cccc(N3CCc4c(nc(OCC5(CN(C)C)CC5)nc4N(C)Cc4nncn4C(C)C)C3)c12` [Example 549, 2-((1-((dimethylamino)methyl)cyclopropyl)methoxy)-7-(8-ethylnaphthalen-1-yl)-N-((4-isopropyl-4H-1,2,4-triazol-3-yl)methyl)-N-methyl-5,6,7,8-tetrahydropyrido[3,4-d]pyrimidin-4-amine], the IC50 turned out to be 1910 nM at KRas WT; 1670 nM on KRas G12A; 946 nM on KRas G12C; 1360 nM at KRas G12S; 2110 nM at KRas G13D; 2540 nM at KRas Q61H. For the same compound, the IC50 was 17400 nM at KRas G12D and 1980 nM at KRas G12V.
Consider `CCc1cccc2cccc(N3CCc4c(nc(OCC5(CN(C)C)CC5)nc4NCc4nnn(C(C)(C)C)n4)C3)c12` [Example 550, N-((2-(tert-butyl)-2H-tetrazol-5-yl)methyl)-2-((1-((dimethylamino)methyl)cyclopropyl)methoxy)-7-(8-ethylnaphthalen-1-yl)-5,6,7,8-tetrahydropyrido[3,4-d]pyrimidin-4-amine], for which the half-inhibitory concentration (IC50) turned out to be 32400 nM at KRas WT; 33600 nM on KRas G12A; 16300 nM on KRas G12C; 28800 nM on KRas G12S; 35300 nM on KRas G13D; 27100 nM on KRas Q61H. The IC50 on KRas G12D worked out at 17600 nM; on KRas G12V, 8180 nM.
With `CCc1cccc2cccc(N3CCc4c(nc(OCC5(CN(C)C)CC5)nc4N(C)CC4CCC(=O)N4)C3)c12` (centres unmarked) [Example 551, 5-(((2-((1-((dimethylamino)methyl)cyclopropyl)methoxy)-7-(8-ethylnaphthalen-1-yl)-5,6,7,8-tetrahydropyrido[3,4-d]pyrimidin-4-yl)(methyl)amino)methyl)pyrrolidin-2-one], the IC50 at KRas WT is 6320 nM; at KRas G12A, 11700 nM; at KRas G12C, 6900 nM; on KRas G12S, 11900 nM; on KRas G13D it was 9890 nM; at KRas Q61H it was 10700 nM. In addition, the IC50 on KRas G12D stood at 18300 nM; at KRas G12V, 2520 nM.
Regarding `CCc1cccc2cccc(N3CCc4c(nc(OCC5(CN(C)C)CC5)nc4N4CCN(c5ccc(=O)[nH]n5)CC4)C3)c12` [Example 552, 6-(4-(2-((1-((dimethylamino)methyl)cyclopropyl)methoxy)-7-(8-ethylnaphthalen-1-yl)-5,6,7,8-tetrahydropyrido[3,4-d]pyrimidin-4-yl)piperazin-1-yl)pyridazin-3(2H)-one], the IC50 on KRas WT is 50400 nM; at KRas G12A it was 51400 nM; at KRas G12C, 26100 nM; on KRas G12S, 51000 nM; at KRas G13D it was above 100000 nM; on KRas Q61H it was 22900 nM. The results for the IC50 on KRas G12D and at KRas G12V were 18400 nM and 5640 nM, respectively.

Usually IC50 stands for the point on the concentration scale where inhibition reaches its midpoint.

The values are drawn from US20250368649A1, “TETRAHYDROPYRIDOPYRIMIDINE PAN-KRAS INHIBITORS” (Mirati Therapeutics, Inc., priority 2022, published 2025).
